# Test results taken from patent publication US10703755B2, “Substituted purine derivative” (SUMITOMO DAINIPPON PHARMA CO., LTD., priority 2016, dated 2020).
# Biological target: human TLR7 (Homo sapiens (Human), UniProt Q9NYK1)
# Assay: Test for evaluating the inhibition of the activation of human TLR7 (SEAP reporter, TLR7/NF-κB/SEAPorter HEK293 cell)
# Format: cell-based
# Settings: R-848 200 nmol/L; for inhibitory effect against TLR7 in the test for evaluating inhibition of the activation of TLR7: SEAP activity, result in words; for IC50: SEAP reporter
# Protocol: As human TLR7 expressing cell line, HEK293 cell line was bought from IMGENEX Corporation (TLR7/NF-ηB/SEAPorter™ HEK293 cell), which is human embryonic kidney cell line and stably expresses full-length human TLR7 gene and secreted alkaline phosphatase (SEAP) reporter gene under the transcriptional control of an NE-ηB response element. The TLR7/NF-ηB/SEAPorter™ HEK293 cell was cultivated with DMEM containing 10% fetal bovine serum (FBS) and 10 μg/mL blasticidin S at 37° C. in the presence of 5% CO2. The TLR7/NF-ηB/SEAPorter™ HEK293 cell was seeded into 96-well microtiter plate at 5×10^4 cell/90 μL/well, and the place was cultivated at 37° C. in a CO2 incubator overnight.
# Each compound prepared in the Examples was evaluated by Test 1.
# Chain of human TLR7 (Q9NYK1 27-1049): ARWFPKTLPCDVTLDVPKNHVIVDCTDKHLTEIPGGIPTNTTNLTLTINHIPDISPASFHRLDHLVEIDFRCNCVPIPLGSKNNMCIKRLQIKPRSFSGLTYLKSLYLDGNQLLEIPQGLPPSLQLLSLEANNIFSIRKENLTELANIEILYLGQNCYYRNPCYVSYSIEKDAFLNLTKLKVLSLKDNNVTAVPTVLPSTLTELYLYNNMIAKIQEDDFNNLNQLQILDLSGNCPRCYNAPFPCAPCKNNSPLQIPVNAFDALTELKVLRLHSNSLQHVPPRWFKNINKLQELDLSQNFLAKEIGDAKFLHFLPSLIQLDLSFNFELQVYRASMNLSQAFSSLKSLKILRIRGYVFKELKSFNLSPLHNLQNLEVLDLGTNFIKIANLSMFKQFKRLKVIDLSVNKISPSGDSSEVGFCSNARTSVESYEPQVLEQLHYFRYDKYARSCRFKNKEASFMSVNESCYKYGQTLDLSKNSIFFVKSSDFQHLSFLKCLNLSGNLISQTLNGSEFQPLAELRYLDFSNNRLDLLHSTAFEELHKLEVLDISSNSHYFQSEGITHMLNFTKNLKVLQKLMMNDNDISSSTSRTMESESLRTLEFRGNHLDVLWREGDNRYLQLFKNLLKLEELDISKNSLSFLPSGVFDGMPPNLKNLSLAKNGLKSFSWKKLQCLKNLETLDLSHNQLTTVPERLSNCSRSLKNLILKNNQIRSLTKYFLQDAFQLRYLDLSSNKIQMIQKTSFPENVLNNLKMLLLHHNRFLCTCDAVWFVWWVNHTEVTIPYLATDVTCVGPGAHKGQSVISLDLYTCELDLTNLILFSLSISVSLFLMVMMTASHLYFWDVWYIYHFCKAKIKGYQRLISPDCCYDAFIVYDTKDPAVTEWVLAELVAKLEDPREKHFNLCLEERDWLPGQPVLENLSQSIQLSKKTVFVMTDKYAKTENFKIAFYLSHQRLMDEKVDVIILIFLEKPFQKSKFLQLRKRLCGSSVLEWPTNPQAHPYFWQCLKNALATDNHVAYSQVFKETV
Structure (SMILES),inhibitory effect against TLR7 in the test for evaluating inhibition of the activation of TLR7,IC50
CCOc1nc(C)c2nc(-c3cncc(F)c3)n(Cc3ccc(O[C@H]4CN5CCC4CC5)nc3)c2n1 [Example 72],potent inhibitory effect against TLR7,81 nM
CCOc1nc(C)c2nc(-c3cncc(F)c3)n(Cc3ccc(OCC4CN5CCC4CC5)nc3)c2n1 (stereo not shown) [Example 73],,160 nM
CCCOc1nc(C)c2nc(-c3cncc(F)c3)n(Cc3ccc(O[C@@H]4CN5CCC4CC5)nc3)c2n1 [Example 75],,200 nM
CCCOc1nc(C)c2nc(-c3cncc(C)c3)n(Cc3ccc(O[C@@H]4CN5CCC4CC5)nc3)c2n1 [Example 76],,400 nM
"CCOc1nc(N)c2nc(-c3cncc(F)c3)n(Cc3ccc(CO)cc3)c2n1 [Example 77, (4-{[6-Amino-2-ethoxy-8-(5-fluoropyridin-3-yl)-9H-purin-9-yl]methyl}phenyl)methanol]",,2400 nM
CCOc1nc(C)c2nc(-c3cncc(F)c3)n(Cc3ccc(CO)cc3)c2n1 [Example 78],,1300 nM
CCCCOc1nc(C)c2nc(-c3cncc(F)c3)n(Cc3ccc(CO)cc3)c2n1 [Example 79],,3500 nM
"CCOc1nc(N)c2nc(-c3cncc(F)c3)n(Cc3ccc(CN(C)C)cc3)c2n1 [Example 80, 9-{4-[(Dimethylamino)methyl]benzyl}-2-ethoxy-8-(5-fluoropyridin-3-yl)-9H-purine-6-amine]",,540 nM
CCCCOc1nc(N)c2nc(-c3cncc(F)c3)n(Cc3ccc(CN(C)C)cc3)c2n1 [Example 82],,400 nM
CCCCOc1nc(N)c2nc(-c3cncc(F)c3)n(Cc3ccc(CN4CCOCC4)cc3)c2n1 [Example 83],,1300 nM
CCCCOc1nc(N)c2nc(-c3cncc(C)c3)n(Cc3cccc(CN(C)C)c3)c2n1 [Example 85],,800 nM
CCCCOc1nc(N)c2nc(-c3cncc(F)c3)n(Cc3cccc(CN4CCOCC4)c3)c2n1 [Example 86],,300 nM
COCCOc1nc(N)c2nc(-c3cncc(F)c3)n(Cc3ccc(CN(C)C)cc3)c2n1 [Example 87],,2500 nM
COCCOc1nc(N)c2nc(-c3cncc(F)c3)n(Cc3ccc(CN4CCOCC4)cc3)c2n1 [Example 88],,900 nM
COCCOc1nc(N)c2nc(-c3cncc(F)c3)n(Cc3cccc(CN(C)C)c3)c2n1 [Example 89],,1400 nM
COCCOc1nc(N)c2nc(-c3cncc(F)c3)n(Cc3cccc(CN4CCOCC4)c3)c2n1 [Example 90],,4200 nM

Structure (SMILES),inhibitory effect against TLR7 in the test for evaluating inhibition of the activation of TLR7,IC50
COCCOc1nc(N)c2nc(-c3cncc(F)c3)n(Cc3ccc(CN4CCCCC4)cc3)c2n1 [Example 91],,250 nM
COCCOc1nc(N)c2nc(-c3cncc(F)c3)n(Cc3ccc(CN4CCC(F)(F)CC4)cc3)c2n1 [Example 92],,370 nM
CCOc1nc(N)c2nc(-c3cncc(F)c3)n(Cc3ccc(CN4CCN(C)C(=O)C4)cc3)c2n1 [Example 93],,290 nM
CCOc1nc(N)c2nc(-c3cncc(F)c3)n(Cc3ccc(CN4[C@@H]5CC[C@H]4CN(C)C5)cc3)c2n1 [Example 95],potent inhibitory effect against TLR7,50 nM
CCOc1nc(N)c2nc(-c3cncc(F)c3)n(Cc3ccc(CN4CCC(F)(F)CC4)cc3)c2n1 [Example 99],,146 nM
CCOc1nc(N)c2nc(-c3cncc(F)c3)n(Cc3ccc(CN(C)CC(F)F)cc3)c2n1 [Example 102],,810 nM
CCOc1nc(N)c2nc(-c3cncc(F)c3)n(Cc3ccc(CN4CC(C#N)C4)cc3)c2n1 [Example 103],,1600 nM
CCOc1nc(N)c2nc(-c3cncc(F)c3)n(Cc3ccc(CN4CCCC4)cc3)c2n1 [Example 104],,760 nM
COCCOc1nc(C)c2nc(-c3cncc(F)c3)n(Cc3ccc(CN4CCOCC4)cc3)c2n1 [Example 114],,300 nM
COCCOc1nc(C)c2nc(-c3cncc(F)c3)n(Cc3ccc(CN4CCN(C)CC4)cc3)c2n1 [Example 115],,100 nM
CCOc1nc(C)c2nc(-c3cncc(F)c3)n(Cc3ccc(CN4CC(C#N)C4)cc3)c2n1 [Example 116],,160 nM
CCNc1nc(N)c2nc(-c3cncc(F)c3)n(Cc3ccc(CN(C)C)cc3)c2n1 [Example 117],,7000 nM
CN(C)Cc1ccc(Cn2c(-c3cncc(F)c3)nc3c(N)nc(Cl)nc32)cc1 [Example 118],,950 nM
CCOc1nc(N)c2nc(-c3cncc(F)c3)n(Cc3ccc(CN4C[C@@H]5C[C@H]4CN5)cc3)c2n1 [Example 124],,220 nM
"CCOc1nc(N)c2nc(-c3cncc(F)c3)n(Cc3ccc(CN4C[C@@H]5C[C@H]4CN5C(C)=O)cc3)c2n1 [Example 126, 1-[(1S,4S)-5-(4-{[6-Amino-2-ethoxy-8-(5-fluoropyridin-3-yl)-9H-purin-9-yl]methyl}benzyl)-2,5-diazabicyclo[2.2.1]hept-2-yl]ethanone]",,150 nM

# The remaining molecules from weak to strong by IC50, led by results:
inhibitory effect against TLR7 in the test for evaluating inhibition of the activation of TLR7,IC50,Structure (SMILES)
,100 nM,CCOc1nc(N)c2nc(-c3cncc(F)c3)n(Cc3ccc(CN4CCOCC4)cc3)c2n1 [Example 97]
,100 nM,CCCCOc1nc(C)c2nc(-c3cncc(F)c3)n(Cc3ccc(CN4CCOCC4)cc3)c2n1 [Example 112]
potent inhibitory effect against TLR7,96 nM,CCOc1nc(N)c2nc(-c3cncc(F)c3)n(Cc3ccc(CN4CCC4)cc3)c2n1 [Example 100]
potent inhibitory effect against TLR7,85 nM,COc1nc(C)c2nc(-c3cncc(F)c3)n(Cc3ccc(CN4C[C@@H]5C[C@H]4CN5)cc3)c2n1 [Example 125]
potent inhibitory effect against TLR7,80 nM,CCOc1nc(N)c2nc(-c3cncc(F)c3)n(Cc3ccc(CN4C[C@@H]5C[C@H]4CO5)cc3)c2n1 [Example 96]
potent inhibitory effect against TLR7,71 nM,CCOc1nc(N)c2nc(-c3cncc(F)c3)n(Cc3ccc(CN4CCCCC4)cc3)c2n1 [Example 98]
potent inhibitory effect against TLR7,71 nM,CCOc1nc(N)c2nc(-c3cncc(F)c3)n(Cc3ccc(CN4C[C@@H]5C[C@H]4CN5C4COC4)cc3)c2n1 [Example 129]
potent inhibitory effect against TLR7,62 nM,CCOc1nc(N)c2nc(-c3cncc(F)c3)n(Cc3ccc(CN4CC(C)(O)C4)cc3)c2n1 [Example 106]
potent inhibitory effect against TLR7,60 nM,CCOc1nc(N)c2nc(-c3cncc(F)c3)n(Cc3ccc(CN4CCN(C)CC4)cc3)c2n1 [Example 81]
potent inhibitory effect against TLR7,59 nM,CCOc1nc(N)c2nc(-c3cncc(F)c3)n(Cc3ccc(CN4CC(C(F)F)C4)cc3)c2n1 [Example 105]
potent inhibitory effect against TLR7,56 nM,CCOc1nc(N)c2nc(-c3cncc(F)c3)n(Cc3ccc(CN4CC(F)(F)C4)cc3)c2n1 [Example 101]
potent inhibitory effect against TLR7,53 nM,"CCOc1nc(N)c2nc(-c3cncc(F)c3)n(Cc3ccc(C4CCN(C)CC4)cc3)c2n1 [Example 127, 2-Ethoxy-8-(5-fluoropyridin-3-yl)-9-[4-(1-methylpiperidin-4-yl)benzyl]-9H-purine-6-amine]"
potent inhibitory effect against TLR7,33 nM,"CCOc1nc(C)c2nc(-c3cncc(F)c3)n(Cc3ccc(CN4C[C@@H]5C[C@H]4CN5)cc3)c2n1 [Example 123, 9-{4-[(1S,4S)-2,5-Diazabicyclo[2.2.1]hept-2-ylmethyl]benzyl}-2-ethoxy-8-(5-fluoropyridin-3-yl)-6-methyl-9H-purine]"
potent inhibitory effect against TLR7,27 nM,"COc1nc(C)c2nc(-c3cncc(F)c3)n(Cc3ccc(CN4C[C@@H]5C[C@H]4CN5C)cc3)c2n1 [Example 107, 8-(5-fluoropyridin-3-yl)-2-methoxy-6-methyl-9-(4-{[(1S,4S)-5-methyl-2,5-diazabicyclo[2.2.1]hept-2-yl]methyl}benzyl)-9H-purine]"
potent inhibitory effect against TLR7,20 nM,CCOc1nc(N)c2nc(-c3cncc(F)c3)n(Cc3ccc(CN4C[C@@H]5C[C@H]4CN5C)cc3)c2n1 [Example 94]
potent inhibitory effect against TLR7,19 nM,CCOc1nc(N)c2nc(-c3cncc(F)c3)n(Cc3ccc(CN4C[C@@H]5C[C@H]4CN5CC)cc3)c2n1 [Example 128]
potent inhibitory effect against TLR7,10 nM,"CCOc1nc(C)c2nc(-c3cncc(F)c3)n(Cc3ccc(CN4C[C@@H]5C[C@H]4CN5C)cc3)c2n1 [Example 109, 2-ethoxy-8-(5-fluoropyridin-3-yl)-6-methyl-9-(4-{[(1S,4S)-5-methyl-2,5-diazabicyclo[2.2.1]hept-2-yl]methyl}benzyl)-9H-purine]"
potent inhibitory effect against TLR7,5 nM,"CCOc1nc(C)c2nc(-c3cncc(F)c3)n(Cc3ccc(CN4C[C@H]5C[C@@H]4CN5C)cc3)c2n1 [Example 110, 2-ethoxy-8-(5-fluoropyridin-3-yl)-6-methyl-9-(4-{[(1R,4R)-5-methyl-2,5-diazabicyclo[2.2.1]hept-2-yl]methyl}benzyl)-9H-purine]"
